Values of other authors in patent publication US20220296715A1, “METHOD FOR PREVENTING PRECIPITATION OF INJECTABLE SOLUTION CONTAINING p-BORONOPHENYLALANINE” (Stella Pharma Corporation, priority 2019, published 2022).

Conditions: physiological pH

N[C@@H](Cc1ccc(B(O)O)cc1)C(=O)O [p-Boronophenylalanine, p-boronophenylalanine]
solubility: very poor solubility
